Measurements published in patent US20240246935A1 (Plexium, Inc., priority 2021, published 2024).

Target: human E3 ligase component cereblon (CRBN) (Homo sapiens (Human), UniProt Q96SW2)
Assay: Cereblon (CRBN) target engagement, NanoBRET TE Intracellular E3 Ligase Assay in transfected HEK-293T cells
Conditions: read-out: CRBN Binding EC50
Outline: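 Live HEK-293T cells co-transfected overnight with NanoLuc-CRBN (CRBN at NanoLuc C-terminus) and DDB1 vectors (10:990 ng) were given CRBN tracer and an 11-point compound series for 2 h at 37° C. BRET read at 450/610 nm with extracellular NanoLuc inhibitor present; IC50 from four-parameter logistic fit.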

human E3 ligase component cereblon (CRBN), sequence (Q96SW2 whole entry): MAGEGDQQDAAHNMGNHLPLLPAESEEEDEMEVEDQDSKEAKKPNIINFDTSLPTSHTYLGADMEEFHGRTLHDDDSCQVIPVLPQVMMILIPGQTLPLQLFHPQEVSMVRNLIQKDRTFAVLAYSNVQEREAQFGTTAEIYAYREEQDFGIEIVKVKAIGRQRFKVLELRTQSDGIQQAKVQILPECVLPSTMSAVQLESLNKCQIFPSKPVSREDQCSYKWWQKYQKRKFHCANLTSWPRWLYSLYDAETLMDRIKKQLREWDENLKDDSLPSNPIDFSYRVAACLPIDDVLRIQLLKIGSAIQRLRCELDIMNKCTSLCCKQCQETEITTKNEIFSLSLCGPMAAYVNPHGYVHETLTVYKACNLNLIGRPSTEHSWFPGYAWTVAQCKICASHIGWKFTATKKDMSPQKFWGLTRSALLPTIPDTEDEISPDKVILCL
human E3 ligase component cereblon (CRBN), sequence (Q16531 whole entry partner): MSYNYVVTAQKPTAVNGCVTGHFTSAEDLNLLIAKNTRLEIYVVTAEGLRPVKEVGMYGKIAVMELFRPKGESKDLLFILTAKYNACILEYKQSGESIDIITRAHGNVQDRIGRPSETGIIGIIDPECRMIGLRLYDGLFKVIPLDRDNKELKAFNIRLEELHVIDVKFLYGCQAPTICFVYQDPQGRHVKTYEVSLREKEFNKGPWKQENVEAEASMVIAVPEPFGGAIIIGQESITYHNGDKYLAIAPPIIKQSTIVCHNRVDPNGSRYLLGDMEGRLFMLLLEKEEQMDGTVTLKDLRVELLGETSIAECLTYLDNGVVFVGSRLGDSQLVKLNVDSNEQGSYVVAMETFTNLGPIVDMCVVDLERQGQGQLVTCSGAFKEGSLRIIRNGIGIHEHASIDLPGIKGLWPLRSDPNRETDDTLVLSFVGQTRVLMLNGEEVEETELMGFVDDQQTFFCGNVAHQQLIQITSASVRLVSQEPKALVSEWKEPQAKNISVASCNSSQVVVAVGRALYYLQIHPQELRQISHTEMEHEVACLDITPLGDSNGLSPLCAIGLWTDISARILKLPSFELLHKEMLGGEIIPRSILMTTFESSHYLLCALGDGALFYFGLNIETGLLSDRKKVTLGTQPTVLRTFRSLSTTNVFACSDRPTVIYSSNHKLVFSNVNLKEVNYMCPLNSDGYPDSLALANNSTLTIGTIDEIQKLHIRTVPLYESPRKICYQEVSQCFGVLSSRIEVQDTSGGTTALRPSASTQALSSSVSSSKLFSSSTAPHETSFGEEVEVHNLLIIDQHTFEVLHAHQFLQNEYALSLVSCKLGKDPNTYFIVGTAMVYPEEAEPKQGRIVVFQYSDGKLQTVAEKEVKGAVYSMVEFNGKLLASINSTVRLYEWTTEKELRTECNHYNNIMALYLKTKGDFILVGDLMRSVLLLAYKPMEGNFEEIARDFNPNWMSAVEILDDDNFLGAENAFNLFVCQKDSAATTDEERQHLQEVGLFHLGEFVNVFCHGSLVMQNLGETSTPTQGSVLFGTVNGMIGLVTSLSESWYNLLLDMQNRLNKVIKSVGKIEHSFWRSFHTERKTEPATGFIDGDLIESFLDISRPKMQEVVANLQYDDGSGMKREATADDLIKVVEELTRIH

Row | SMILES | EC50
1 | O=C1CCC(N2Cc3cc(O[C@H]4CCCC[C@@H]4N4CC(c5ccccc5C(F)(F)F)C4)ccc3C2=O)C(=O)N1 (stereo partly drawn) [Compound 129, 3-(1-oxo-5-(((1S,2S)-2-(3-(2-(trifluoromethyl)phenyl)azetidin-1-yl)cyclohexyl)oxy)isoindolin-2-yl)piperidine-2,6-dione] | 0.017 µM
2 | O=C1CCC(N2Cc3cc(O[C@H]4CCCCC[C@@H]4N4CC(c5ccccc5)C4)ccc3C2=O)C(=O)N1 (stereo partly drawn) [Compound 131, 3-(1-oxo-5-(((1S,2S)-2-(3-phenylazetidin-1-yl)cycloheptyl)oxy)isoindolin-2-yl)piperidine-2,6-dione] | 0.011 µM
3 | O=C1CCC(N2Cc3c(ccc(O[C@H]4CCCC[C@@H]4N4CC(c5ccccc5)C4)c3F)C2=O)C(=O)N1 (single isomer, unassigned) [Compound 65] | 0.052 µM
4 | O=C1CCC(N2Cc3cc(O[C@H]4CCCC[C@@H]4N4CC(c5ccc(O)cc5)C4)ccc3C2=O)C(=O)N1 (stereo partly drawn) [Compound 132, 3-(5-(((1S,2S)-2-(3-(4-hydroxyphenyl)azetidin-1-yl)cyclohexyl)oxy)-1-oxoisoindolin-2-yl)piperidine-2,6-dione] | 0.011 µM
5 | O=C1CCC(N2Cc3cc(O[C@H]4CCCC[C@@H]4N4CC(c5cccc(O)c5)C4)ccc3C2=O)C(=O)N1 (stereo partly drawn) [Compound 134, 3-(5-(((1S,2S)-2-(3-(3-hydroxyphenyl)azetidin-1-yl)cyclohexyl)oxy)-1-oxoisoindolin-2-yl)piperidine-2,6-dione] | 0.012 µM
6 | O=C1CCC(N2Cc3cc(O[C@H]4CCCC[C@@H]4N4CC(c5cccc(OC(F)(F)F)c5)C4)ccc3C2=O)C(=O)N1 (stereo partly drawn) [Compound 35, 3-(1-oxo-5-(((1S,2S)-2-(3-(3-(trifluoromethoxy)phenyl)azetidin-1-yl)cyclohexyl)oxy)isoindolin-2-yl)piperidine-2,6-dione] | 0.017 µM
7 | N#Cc1cc(Cl)ccc1C1CN([C@@H]2CCCC[C@@H]2Oc2ccc3c(c2)CN(C2CCC(=O)NC2=O)C3=O)C1 (mixture of isomers) [Compound 100, Rac-5-chloro-2-(1-((cis)-2-((2-(2,6-dioxopiperidin-3-yl)-1-oxoisoindolin-5-yl)oxy)cyclohexyl)azetidin-3-yl)benzonitrile] | 0.025 µM
8 | O=C1CCC(N2Cc3c(ccc(O[C@H]4CCCC[C@@H]4N4CC(c5ccccc5)C4)c3F)C2=O)C(=O)N1 (single isomer, unassigned) [Compound 66] | 0.024 µM
9 | O=C1CCC(N2Cc3cc(O[C@H]4CCCC[C@@H]4N4CC(c5ccccc5OC(F)(F)F)C4)ccc3C2=O)C(=O)N1 (stereo partly drawn) [Compound 36, 3-(1-oxo-5-(((1S,2S)-2-(3-(2-(trifluoromethoxy)phenyl)azetidin-1-yl)cyclohexyl)oxy)isoindolin-2-yl)piperidine-2,6-dione] | 0.031 µM
10 | O=C1CCC(N2Cc3cc(O[C@H]4CCCC[C@@H]4N4CC(c5ccccc5)C4)c(F)cc3C2=O)C(=O)N1 (single isomer, unassigned) [Compound 52] | 0.011 µM
11 | O=C1CCC(N2Cc3cc(O[C@H]4CCCC[C@@H]4N4CC(c5ccccc5O)C4)ccc3C2=O)C(=O)N1 (stereo partly drawn) [Compound 133, 3-(5-(((1S,2S)-2-(3-(2-hydroxyphenyl)azetidin-1-yl)cyclohexyl)oxy)-1-oxoisoindolin-2-1)piperidine-2,6-dione] | 0.014 µM

Other lines, results leading:

Row | EC50 | SMILES
12 | 0.011 µM | O=C1CCC(N2Cc3cc(O[C@H]4CCCC[C@@H]4N4CC(c5cccc(F)c5F)C4)ccc3C2=O)C(=O)N1 (stereo partly drawn) [Compound 64, 3-(5-(((1S,2S)-2-(3-(2,3-difluorophenyl)azetidin-1-yl)cyclohexyl)oxy)-1-oxoisoindolin-2-yl)piperidine-2,6-dione]
13 | 0.002 µM | O=C1CCC(N2Cc3cc(O[C@H]4CCCC[C@@H]4N4CC(c5ccc(N6CCOCC6)cc5)C4)ccc3C2=O)C(=O)N1 (stereo partly drawn) [Compound 124, 3-(5-(((1S,2S)-2-(3-(4-morpholinophenyl)azetidin-1-yl)cyclohexyl)oxy)-1-oxoisoindolin-2-yl)piperidine-2,6-dione]
14 | 0.004 µM | O=C(O)CC(O)(CC(=O)O)C(=O)O.O=C1CCC(N2Cc3cc(O[C@H]4CCCC[C@@H]4N4CC(c5ccccc5)C4)ccc3C2=O)C(=O)N1 (stereo partly drawn) [Compound 130, 3-(1-oxo-5-(((1S,2S)-2-(3-phenylazetidin-1-yl)cyclohexyl)oxy)isoindolin-2-yl)piperidine-2,6-dione 2-hydroxypropane-1,2,3-tricarboxylate]
15 | 0.006 µM | O=C1CC[C@@H](N2Cc3cc(O[C@H]4CCCC[C@@H]4N4CC(c5ccccc5)C4)ccc3C2=O)C(=O)N1 [Compound 125, (R)-3-(1-oxo-5-(((1S,2S)-2-(3-phenylazetidin-1-yl)cyclohexyl)oxy)isoindolin-2-yl)piperidine-2,6-dione]
16 | 0.006 µM | O=C1CCC(N2Cc3cc(O[C@H]4CCCC[C@@H]4N4CC(c5cccc(F)c5)C4)ccc3C2=O)C(=O)N1 (stereo partly drawn) [Compound 111, 3-(5-(((1S,2S)-2-(3-(3-fluorophenyl)azetidin-1-yl)cyclohexyl)oxy)-1-oxoisoindolin-2-yl)piperidine-2,6-dione]
17 | 0.004 µM | O=C1CCC(N2Cc3cc(O[C@H]4CCCC[C@@H]4N4CC(c5ccc(F)cc5)C4)ccc3C2=O)C(=O)N1 (single isomer, unassigned) [Compound 50]
